The text below walks through data of US12336982B2 (RODEO THERAPEUTICS CORPORATION, priority 2018, dated 2025).

This assay deals with T1, recombinant 15-PGDH (Homo sapiens, UniProt P15428).
T1 sequence (P15428 1-266): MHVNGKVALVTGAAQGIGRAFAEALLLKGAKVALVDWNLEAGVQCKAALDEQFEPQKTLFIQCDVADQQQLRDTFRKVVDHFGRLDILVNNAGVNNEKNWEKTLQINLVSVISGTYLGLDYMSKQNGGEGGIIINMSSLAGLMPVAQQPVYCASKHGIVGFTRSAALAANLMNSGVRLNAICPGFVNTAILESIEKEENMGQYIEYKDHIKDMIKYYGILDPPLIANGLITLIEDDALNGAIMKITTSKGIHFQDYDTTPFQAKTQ
Type of assay: biochemical. As to conditions: recombinant human 15-PGDH, in vitro; read-out: PDGH Assay-IC50.

Molecules are shown by their SMILES. Where only a bound is given, the exact number is not on record here.

One may read the IC50 as the concentration that gives 50% inhibition.

From the text: The Recombinant 15-PGDH is human unless otherwise specified.

As for `COCCC[S@@+]([O-])c1sc2nc(-c3cccnc3)cc(C(F)(F)F)c2c1N` [Example 78], the IC50 is under 2.5 nM.
On to `COCC[S+]([O-])c1sc2nc(-c3ccc(NC(C)=O)nc3)cc(-c3ccnn3C)c2c1N` (stereo not shown) [Example 393], for which the IC50 lay in the range of 2.5 to 10 nM.
In the case of `Nc1c([S+]([O-])C2CCC2)sc2nc(-c3cn[nH]c(=O)c3)cc(C3CCC3)c12` (stereo not shown) [Example 395], the IC50 was under 2.5 nM.
Take `COCC[S@+]([O-])c1sc2nc(-c3cnn(C)c3)cc(C3CC3)c2c1N` [Example 276]: the IC50 was at least 10 nM.
With `COCCC[S+]([O-])c1sc2nc(-c3cnc(N)nc3)cc(-c3ccc(F)cc3)c2c1N` (stereo not shown) [Example 46], the IC50 was under 2.5 nM.
Next, `COCCC[S@+]([O-])c1sc2nc(-c3cnc4c(cnn4C)c3)cc(-c3cccnc3)c2c1N` [Example 102]: at least 10 nM; `Cn1ccc(-c2cc(-c3cnc(NCCO)nc3)nc3sc([S+]([O-])C4CCC4)c(N)c23)n1` (stereo not shown) [Example 340]: under 2.5 nM; `Cn1nccc1-c1cc(-c2cncnc2)nc2sc([S+]([O-])C3CCC3)c(N)c12` (stereo not shown) [Example 195]: under 2.5 nM.
Consider `Cn1ccc(-c2cc(-c3ccnnc3)nc3sc([S+]([O-])C4CCC4)c(N)c23)n1` (stereo not shown) [Example 213], for which the IC50 was under 2.5 nM.
On to `COCCC[S+]([O-])c1sc2nc(-c3cnc(NCCO)nc3)cc(C(F)(F)F)c2c1N` (stereo not shown) [Example 139], for which the IC50 lay in the range of 2.5 to 10 nM.
Consider `COCC[S+]([O-])c1sc2nc(-c3cnc4nn(C)nc4c3)cc(-c3ccnn3C)c2c1N` (stereo not shown) [Example 380], for which the IC50 was under 2.5 nM.
Take `Nc1c([S+]([O-])C2CCC2)sc2nc(-c3cncnc3)cc(-c3ncccn3)c12` (stereo not shown) [Example 98]: the half-maximal inhibitory concentration (IC50) is under 2.5 nM.
Regarding `COCC[S@@+]([O-])c1sc2nc(-c3cnc4ncn(C)c4c3)cc(-c3ccccc3)c2c1N` [Example 362], the IC50 is under 2.5 nM.
As for `COCC[S+]([O-])c1sc2nc(-c3cncnc3)cc(-c3ccon3)c2c1N` (stereo not shown) [Example 352], the IC50 was under 2.5 nM.
`COCC[S@+]([O-])c1sc2nc(-c3cnc4nn(C)cc4c3)cc(-c3ccnn3C)c2c1N` [Example 336]: the IC50 was at least 10 nM.
The result for `COCC[S@@+]([O-])c1sc2nc(-c3cnc4c(c3)ncn4C)cc(C3CCC3)c2c1N` [Example 374] reads under 2.5 nM; that for `COCC[S+]([O-])c1sc2nc(-c3ccc(=O)[nH]c3)cc(-c3ccccc3)c2c1N` (stereo not shown) [Example 167], under 2.5 nM.
For the molecule `COCCC[S+]([O-])c1sc2nc(-c3cnc(NCCO)nc3)cc(-c3ccc(F)cc3)c2c1N` (stereo not shown) [Example 71], the IC50 is 2.5 to 10 nM.
Take `Nc1c([S+]([O-])C2CCC2)sc2nc(-c3cnc(N(CCO)CCO)nc3)cc(-c3ccccc3)c12` (stereo not shown) [Example 197]: the IC50 was under 2.5 nM.
The result for `COCC[S+]([O-])c1sc2nc(-c3ccnnc3)cc(-c3ccccc3)c2c1N` (stereo not shown) [Example 210] reads under 2.5 nM; that for `Cn1nccc1-c1cc(-c2cnc3c(=O)n(C)ccc3c2)nc2sc([S+]([O-])C3CCC3)c(N)c12` (stereo not shown) [Example 216], under 2.5 nM.
In the case of `COCCC[S+]([O-])c1sc2nc(-c3ccnnc3)cc(-c3ccccc3)c2c1N` (stereo not shown) [Example 209], the half-maximal inhibitory concentration (IC50) was under 2.5 nM.
With `COCC[S+]([O-])c1sc2nc(-c3cncnc3)cc(C)c2c1N` (stereo not shown) [Example 173], the half-inhibitory concentration (IC50) is under 2.5 nM.
`COCCC[S+]([O-])c1sc2nc(-c3cnc(O)nc3)cc(-c3ccccc3)c2c1N` (stereo not shown) [Example 166]: the IC50 fell in the range of 2.5 to 10 nM.
As for `COCC[S+]([O-])c1sc2nc(-c3cnc4nn(CCO)cc4c3)cc(-c3ccccc3)c2c1N` (stereo not shown) [Example 263], the IC50 was under 2.5 nM.
The result for `Cn1nccc1-c1cc(-c2cnc3ncn(C)c3c2)nc2sc([S@@+]([O-])C3CCC3)c(N)c12` [Example 372] reads at least 10 nM; that for `COCC[S+]([O-])c1sc2nc(-c3cnc4ncn(C)c4c3)cc(C3CC3)c2c1N` (stereo not shown) [Example 404], under 2.5 nM.
As to `Nc1c([S@@+]([O-])C2CCC2)sc2nc(-c3cnc4ncnn4c3)cc(-c3ccccc3)c12` [Example 403], the concentration for half-maximal inhibition (IC50) is at least 10 nM.
As to `Nc1c([S@+]([O-])C2CCC2)sc2nc(-c3cncnc3)cc(-c3ccon3)c12` [Example 309], the IC50 is under 2.5 nM.
As to `Nc1c([S@+]([O-])C2CCC2)sc2nc(-c3cnc(NCCOCCO)nc3)cc(-c3ccccc3)c12` [Example 184], the 50% inhibitory concentration (IC50) is under 2.5 nM.
As to `COCC[S+]([O-])c1sc2nc(-c3cnc4c(c3)ncn4C)cc(-c3ccnn3C)c2c1N` (stereo not shown) [Example 379], the IC50 was under 2.5 nM.
As to `Nc1c([S+]([O-])C2CCC2)sc2nc(-c3cnc(NCCO)nc3)nc(-c3ccccc3)c12` (stereo not shown) [Example 431], the IC50 lay in the range of 2.5 to 10 nM.
Take `Nc1c([S+]([O-])C2CCC2)sc2nc(-c3cncnc3)cc(C34CC(C3)C4)c12` (stereo not shown) [Example 257]: the IC50 is under 2.5 nM.
The result for `Cc1cc(-c2cncnc2)nc2sc([S+]([O-])C3CCC3)c(N)c12` (stereo not shown) [Example 164] reads under 2.5 nM.
For the molecule `COCC[S+]([O-])c1sc2nc(-c3cnc(N4CCOCC4)nc3)cc(C(F)(F)F)c2c1N` (stereo not shown) [Example 424], the IC50 was under 2.5 nM.
For `COCC[S+]([O-])c1sc2nc(-c3cnc4c(cnn4C)c3)cc(C3CC3)c2c1N` (stereo not shown) [Example 226], the IC50 is under 2.5 nM.
The result for `Nc1c([S@+]([O-])C2CCC2)sc2nc(-c3cnc(NCCO)nc3)cc(-c3ccccn3)c12` [Example 94] reads under 2.5 nM; that for `COC(=O)Nc1ncc(-c2cc(-c3ccccn3)c3c(N)c([S+]([O-])C4CCC4)sc3n2)cn1` (stereo not shown) [Example 113], 2.5 to 10 nM.
For `Nc1c([S@+]([O-])C2CCC2)sc2nc(-c3cnc(NCCO)nc3)cc(-c3cccnc3)c12` (stereo in doubt) [Example 103], the half-maximal inhibitory concentration (IC50) was under 2.5 nM.
As for `Cn1nccc1-c1cc(-c2cnc3c(c2)nnn3C)nc2sc([S@@+]([O-])C3CCC3)c(N)c12` [Example 327], the IC50 is at least 10 nM.
`COCC[S+]([O-])c1sc2nc(-c3cnc4nn(C)cc4c3)cc(C(F)(F)F)c2c1NC(C)=O` (stereo not shown) [Example 208]: the IC50 was at least 10 nM.
Consider `COCCC[S@@+]([O-])c1sc2nc(-c3cnc4nn(C)cc4c3)cc(C3CCC3)c2c1N` [Example 261], for which the IC50 was under 2.5 nM.
For `COCC[S+]([O-])c1sc2nc(-c3cnc4c(c3)CN(C)C4=O)cc(C3CCC3)c2c1N` (stereo not shown) [Example 385], the IC50 is under 2.5 nM.
As for `COCCC[S@@+]([O-])c1sc2nc(-c3cnc(N)nc3)cc(C3CC3)c2c1N` [Example 146], the half-maximal inhibitory concentration (IC50) was under 2.5 nM.
As for `COCCC[S@@+]([O-])c1sc2nc(-c3cncnc3)cc(-c3ccncn3)c2c1N` [Example 238], the IC50 is under 2.5 nM.
The result for `COCC[S@@+]([O-])c1sc2nc(-c3cnc4ncn(C)c4c3)cc(C3CCC3)c2c1N` [Example 366] reads under 2.5 nM; that for `COCC[S@+]([O-])c1sc2nc(-c3cncnc3)cc(C3CCC3)c2c1N` [Example 253], at least 10 nM.
The result for `Nc1c([S+]([O-])C2CCC2)sc2nc(-c3cnc(NCCO)nc3)cc(-c3cccc(C(F)(F)F)c3)c12` (stereo not shown) [Example 168] reads 2.5 to 10 nM.
The result for `Nc1c([S+]([O-])C2CCC2)sc2nc(-c3cncnc3)cc(-c3ccon3)c12` (stereo not shown) [Example 308] reads under 2.5 nM; that for `COCC[S+]([O-])c1sc2nc(-c3cnc4c(cnn4C)c3)cc(-c3ccccc3)c2c1N` (stereo not shown) [Example 120], under 2.5 nM; that for `COCCC[S+]([O-])c1sc2nc(-c3cncnc3)cc(-c3cnccn3)c2c1N` (stereo not shown) [Example 233], under 2.5 nM.
`COCC[S@@+]([O-])c1sc2nc(-c3cnc(N)nc3)cc(-c3ccccc3)c2c1N` [Example 87]: the half-inhibitory concentration (IC50) is under 2.5 nM.
Next, `COCC[S+]([O-])c1sc2nc(-c3ccc4[nH]nnc4c3)cc(-c3ccnn3C)c2c1N` (stereo not shown) [Example 214]: under 2.5 nM; `COCC[S@@+]([O-])c1sc2nc(-c3ccnnc3)cc(-c3ccccc3)c2c1N` [Example 211]: under 2.5 nM; `Nc1c([S+]([O-])C2CCC2)sc2nc(-c3cccnc3)cc(C(F)(F)F)c12` (stereo not shown) [Example 58]: under 2.5 nM.
In the case of `COCCC[S@@+]([O-])c1sc2nc(-c3cnc(NCCO)nc3)cc(C(F)(F)F)c2c1N` [Example 207], the half-inhibitory concentration (IC50) is under 2.5 nM.
Consider `Cn1nccc1-c1cc(-c2cnc(NCCO)nc2)nc2sc([S@+]([O-])C3CCC3)c(N)c12` [Example 313], for which the IC50 is under 2.5 nM.
On to `COCCC[S+]([O-])c1sc2nc(-c3cncnc3)cc(-c3ncccn3)c2c1N` (stereo not shown) [Example 91], for which the half-inhibitory concentration (IC50) is under 2.5 nM.
As to `COC(=O)Nc1ccc(-c2cc(-c3cccnc3)c3c(N)c([S+]([O-])C4CCC4)sc3n2)cn1` (stereo not shown) [Example 100], the IC50 was under 2.5 nM.
For the molecule `Nc1c([S+]([O-])C2CCC2)sc2nc(-c3ccc(NCCO)nc3)cc(-c3ccccc3)c12` (stereo not shown) [Example 63], the IC50 was under 2.5 nM.
Turning to `Nc1c([S@+]([O-])C2CCC2)sc2nc(-c3cc(=O)[nH]cn3)cc(-c3ccccc3)c12` [Example 219], the IC50 is under 2.5 nM.
As to `COC(=O)Nc1ncc(-c2cc(-c3cccnc3)c3c(N)c([S+]([O-])C4CCC4)sc3n2)cn1` (stereo not shown) [Example 117], the IC50 was 2.5 to 10 nM.
Regarding `COCCC[S+]([O-])c1sc2nc(-c3cncnc3)cc(C(F)(F)F)c2c1N` (stereo not shown) [Example 131], the IC50 was under 2.5 nM.
For the molecule `COCC[S+]([O-])c1sc2nc(-c3cnn(C)c(=O)c3)cc(-c3ccccc3)c2c1N` (stereo not shown) [Example 397], the IC50 was under 2.5 nM.
Consider `COCCC[S+]([O-])c1sc2nc(-c3cnc(N(C)CCO)nc3)cc(C(F)(F)F)c2c1N` (stereo not shown) [Example 187], for which the IC50 lay within 2.5 to 10 nM.
For the molecule `COCC[S+]([O-])c1sc2nc(-c3cnc4nn(C)cc4c3)cc(C(F)(F)F)c2c1N` (stereo not shown) [Example 417], the IC50 is under 2.5 nM.
For the molecule `COCCC[S+]([O-])c1sc2nc(-c3ccc(NC(=O)OC)nc3)cc(-c3cccnc3)c2c1N` (stereo not shown) [Example 105], the IC50 was 2.5 to 10 nM.
